# In PubChem BioAssay AID1259407 (Chemical Carcinogenesis Research Information System (CCRIS), 2018):
# Active and inactive are the calls of the source. How the calls were made is not given here.
# Test system: CCRIS mutagenicity, Ames/micronucleus/aberration tests
# Assay: CCRIS mutagenicity studies
# [1] = Test System: AMES SALMONELLA TYPHIMURIUM, Strain/Indicator: TA98, Metabolic Activation: NONE, Method: PREINCUBATION
# [2] = Test System: AMES SALMONELLA TYPHIMURIUM, Strain/Indicator: TA100, Metabolic Activation: NONE, Method: PREINCUBATION
# [3] = Test System: AMES SALMONELLA TYPHIMURIUM, Strain/Indicator: TA1535, Metabolic Activation: NONE, Method: PREINCUBATION
# [4] = Test System: AMES SALMONELLA TYPHIMURIUM, Strain/Indicator: TA98, Metabolic Activation: RAT, LIVER, S-9, AROCLOR 1254, Method: STANDARD PLATE
# [5] = Test System: AMES SALMONELLA TYPHIMURIUM, Strain/Indicator: TA100, Metabolic Activation: RAT, LIVER, S-9, AROCLOR 1254, Method: STANDARD PLATE
# [6] = Test System: AMES SALMONELLA TYPHIMURIUM, Strain/Indicator: TA100, Metabolic Activation: NONE, Method: STANDARD PLATE
# [7] = Test System: AMES SALMONELLA TYPHIMURIUM, Strain/Indicator: TA98, Metabolic Activation: NONE, Method: STANDARD PLATE
smiles,measurement,setting,value
CCCCCCCOc1ccccc1NC(=O)OC(C)CN(CC)CC (stereo unspecified),mutagenic call,"Test System: AMES SALMONELLA TYPHIMURIUM, Strain/Indicator: TA98, Metabolic Activation: MOUSE, LIVER, S-9, AROCLOR 1254, Method: PREINCUBATION",inactive; negative
same,mutagenic call,[1],inactive; negative
same,mutagenic call,"Test System: AMES SALMONELLA TYPHIMURIUM, Strain/Indicator: TA100, Metabolic Activation: MOUSE, LIVER, S-9, AROCLOR 1254, Method: PREINCUBATION",inactive; negative
same,mutagenic call,[2],inactive; negative
same,mutagenic call,"Test System: AMES SALMONELLA TYPHIMURIUM, Strain/Indicator: TA1535, Metabolic Activation: MOUSE, LIVER, S-9, AROCLOR 1254, Method: PREINCUBATION",inactive; negative
same,mutagenic call,[3],inactive; negative
same,mutagenic call,"Test System: AMES SALMONELLA TYPHIMURIUM, Strain/Indicator: TA1538, Metabolic Activation: MOUSE, LIVER, S-9, AROCLOR 1254, Method: PREINCUBATION",inactive; negative
same,mutagenic call,"Test System: AMES SALMONELLA TYPHIMURIUM, Strain/Indicator: TA1538, Metabolic Activation: NONE, Method: PREINCUBATION",inactive; negative
same,mutagenic call,"Test System: AMES SALMONELLA TYPHIMURIUM, Strain/Indicator: TA1978, Metabolic Activation: MOUSE, LIVER, S-9, AROCLOR 1254, Method: PREINCUBATION",inactive; negative
same,mutagenic call,"Test System: AMES SALMONELLA TYPHIMURIUM, Strain/Indicator: TA1978, Metabolic Activation: NONE, Method: PREINCUBATION",inactive; negative
same,mutagenic call,"Test System: E. COLI, Strain/Indicator: CM611 UVRA/LEXA, Metabolic Activation: MOUSE, LIVER, S-9, AROCLOR 1254, Method: PREINCUBATION",inactive; negative
same,mutagenic call,"Test System: E. COLI, Strain/Indicator: CM611 UVRA/LEXA, Metabolic Activation: NONE, Method: PREINCUBATION",inactive; negative
same,mutagenic call,"Test System: E. COLI, Strain/Indicator: WP2, Metabolic Activation: MOUSE, LIVER, S-9, AROCLOR 1254, Method: PREINCUBATION",inactive; negative
same,mutagenic call,"Test System: E. COLI, Strain/Indicator: WP2, Metabolic Activation: NONE, Method: PREINCUBATION",inactive; negative
same,mutagenic call,"Test System: E. COLI, Strain/Indicator: WP2 UVRA, Metabolic Activation: MOUSE, LIVER, S-9, AROCLOR 1254, Method: PREINCUBATION",inactive; negative
same,mutagenic call,"Test System: E. COLI, Strain/Indicator: WP2 UVRA, Metabolic Activation: NONE, Method: PREINCUBATION",inactive; negative
same,mutagenic call,"Test System: E. COLI, Strain/Indicator: WP67 UVRA/POLA, Metabolic Activation: MOUSE, LIVER, S-9, AROCLOR 1254, Method: PREINCUBATION",inactive; negative
same,mutagenic call,"Test System: E. COLI, Strain/Indicator: WP67 UVRA/POLA, Metabolic Activation: NONE, Method: PREINCUBATION",inactive; negative
O=S(=O)(O)c1ccc2ccc3cccc4ccc1c2c34,mutagenic call,[4],inactive; negative
same,mutagenic call,[5],active; positive
CCCCNCC,mutagenic call,"Test System: AMES SALMONELLA TYPHIMURIUM, Strain/Indicator: TA98, Metabolic Activation: HAMSTER, LIVER, S-9, AROCLOR 1254 (10%), Method: PREINCUBATION",inactive; negative
same,mutagenic call,[1],inactive; negative
same,mutagenic call,"Test System: AMES SALMONELLA TYPHIMURIUM, Strain/Indicator: TA98, Metabolic Activation: RAT, LIVER, S-9, AROCLOR 1254 (10%), Method: PREINCUBATION",inactive; negative
same,mutagenic call,"Test System: AMES SALMONELLA TYPHIMURIUM, Strain/Indicator: TA100, Metabolic Activation: HAMSTER, LIVER, S-9, AROCLOR 1254 (10%), Method: PREINCUBATION",inactive; negative
same,mutagenic call,[2],inactive; negative
same,mutagenic call,"Test System: AMES SALMONELLA TYPHIMURIUM, Strain/Indicator: TA100, Metabolic Activation: RAT, LIVER, S-9, AROCLOR 1254 (10%), Method: PREINCUBATION",inactive; negative
same,mutagenic call,"Test System: AMES SALMONELLA TYPHIMURIUM, Strain/Indicator: TA1535, Metabolic Activation: HAMSTER, LIVER, S-9, AROCLOR 1254 (10%), Method: PREINCUBATION",inactive; negative
same,mutagenic call,[3],inactive; negative
same,mutagenic call,"Test System: AMES SALMONELLA TYPHIMURIUM, Strain/Indicator: TA1535, Metabolic Activation: RAT, LIVER, S-9, AROCLOR 1254 (10%), Method: PREINCUBATION",inactive; negative
same,mutagenic call,"Test System: AMES SALMONELLA TYPHIMURIUM, Strain/Indicator: TA1537, Metabolic Activation: HAMSTER, LIVER, S-9, AROCLOR 1254 (10%), Method: PREINCUBATION",inactive; negative
same,mutagenic call,"Test System: AMES SALMONELLA TYPHIMURIUM, Strain/Indicator: TA1537, Metabolic Activation: NONE, Method: PREINCUBATION",inactive; negative
same,mutagenic call,"Test System: AMES SALMONELLA TYPHIMURIUM, Strain/Indicator: TA1537, Metabolic Activation: RAT, LIVER, S-9, AROCLOR 1254 (10%), Method: PREINCUBATION",inactive; negative
O=[N+]([O-])c1[nH]cnc1-c1ccccc1,mutagenic call,[6],active; positive
OCc1c2ccccc2cc2ccccc12,mutagenic call,"End Point: In vitro chromosomal aberrations, Test System: Chinese hamster lung (CHL/IU) cells, Metabolic Activation: Rat, Liver, S9, Phenobarbital and 5,6-benzoflavone",active; positive (structural changes) (weak response). precipitation in the culture medi
same,mutagenic call,"Test System: AMES SALMONELLA TYPHIMURIUM, Strain/Indicator: TA98, Metabolic Activation: HUMAN, LIVER, CYTOSOL, PAPS, Method: PREINCUBATION",active; positive
same,mutagenic call,"Test System: Ames Salmonella typhimurium, Strain/Indicator: TA98, Metabolic Activation: None, Method: Preincubation",inactive; negative
same,mutagenic call,"Test System: Ames Salmonella typhimurium, Strain/Indicator: TA98, Metabolic Activation: Rat, Liver, S9, Sodium phenobarbital and 5,6-benzoflavone (10%), Method: Preincubation",inactive; negative
same,mutagenic call,"Test System: Ames Salmonella typhimurium, Strain/Indicator: TA98, Metabolic Activation: Rat, Liver, S9, Sodium phenobarbital and 5,6-benzoflavone (30%), Method: Preincubation",inactive; negative
same,mutagenic call,"Test System: Ames Salmonella typhimurium, Strain/Indicator: TA100, Metabolic Activation: None, Method: Preincubation",inactive; negative
same,mutagenic call,"Test System: Ames Salmonella typhimurium, Strain/Indicator: TA100, Metabolic Activation: Rat, Liver, S9, Sodium phenobarbital and 5,6-benzoflavone (10%), Method: Preincubation",inactive; negative
same,mutagenic call,"Test System: Ames Salmonella typhimurium, Strain/Indicator: TA100, Metabolic Activation: Rat, Liver, S9, Sodium phenobarbital and 5,6-benzoflavone (30%), Method: Preincubation",active; positive
same,mutagenic call,"Test System: Ames Salmonella typhimurium, Strain/Indicator: TA1535, Metabolic Activation: None, Method: Preincubation",inactive; negative
same,mutagenic call,"Test System: Ames Salmonella typhimurium, Strain/Indicator: TA1535, Metabolic Activation: Rat, Liver, S9, Sodium phenobarbital and 5,6-benzoflavone (10%), Method: Preincubation",inactive; negative
same,mutagenic call,"Test System: Ames Salmonella typhimurium, Strain/Indicator: TA1535, Metabolic Activation: Rat, Liver, S9, Sodium phenobarbital and 5,6-benzoflavone (30%), Method: Preincubation",inactive; negative
same,mutagenic call,"Test System: Ames Salmonella typhimurium, Strain/Indicator: TA1537, Metabolic Activation: None, Method: Preincubation",inactive; negative
same,mutagenic call,"Test System: Ames Salmonella typhimurium, Strain/Indicator: TA1537, Metabolic Activation: Rat, Liver, S9, Sodium phenobarbital and 5,6-benzoflavone (10%), Method: Preincubation",active; positive (weak)
same,mutagenic call,"Test System: Ames Salmonella typhimurium, Strain/Indicator: TA1537, Metabolic Activation: Rat, Liver, S9, Sodium phenobarbital and 5,6-benzoflavone (30%), Method: Preincubation",inactive; negative
same,mutagenic call,"Test System: E. coli, Strain/Indicator: WP2uvrA/pKM101, Metabolic Activation: Rat, Liver, S9, Sodium phenobarbital and 5,6-benzoflavone (30%), Method: Preincubation",inactive; negative
Cc1ncc(CNC(=O)N(CCCl)N=O)c(N)n1,mutagenic call,[7],active; positive
same,mutagenic call,[6],active; positive
same,mutagenic call,"Test System: E. COLI, Strain/Indicator: WP2 (HCR), Metabolic Activation: NONE, Method: STANDARD PLATE",active; positive
CN(C)C1Cc2cccc3cccc(c23)C1,mutagenic call,"Test System: AMES SALMONELLA TYPHIMURIUM, Strain/Indicator: TA97, Metabolic Activation: NONE, Method: STANDARD PLATE",inactive; negative
same,mutagenic call,"Test System: AMES SALMONELLA TYPHIMURIUM, Strain/Indicator: TA97, Metabolic Activation: RAT, LIVER, S-9, AROCLOR 1254, Method: STANDARD PLATE",inactive; negative
same,mutagenic call,[7],inactive; negative
same,mutagenic call,[4],active; positive
same,mutagenic call,[6],inactive; negative
same,mutagenic call,[5],inactive; negative
same,mutagenic call,"Test System: AMES SALMONELLA TYPHIMURIUM, Strain/Indicator: TA102, Metabolic Activation: NONE, Method: STANDARD PLATE",inactive; negative
same,mutagenic call,"Test System: AMES SALMONELLA TYPHIMURIUM, Strain/Indicator: TA102, Metabolic Activation: RAT, LIVER, S-9, AROCLOR 1254, Method: STANDARD PLATE",inactive; negative
same,mutagenic call,"Test System: AMES SALMONELLA TYPHIMURIUM, Strain/Indicator: TA1535, Metabolic Activation: NONE, Method: STANDARD PLATE",inactive; negative
same,mutagenic call,"Test System: AMES SALMONELLA TYPHIMURIUM, Strain/Indicator: TA1535, Metabolic Activation: RAT, LIVER, S-9, AROCLOR 1254, Method: STANDARD PLATE",inactive; negative
